Experimental data reported in patent publication US20080200454A1, “CARBON-LINKED TETRAHYDRO-PYRAZOLO-PYRIDINE MODULATORS OF CATHEPSIN S” (priority 2007, published 2008).
pIC50: −log10 of the molar value. Like-named read-outs stand apart in the source and are kept apart here.

Target: Recombinant human cathepsin S (CatS) (Homo sapiens, UniProt P25774)
Assay: Recombinant human cathepsin S (CatS) inhibition assay, fluorogenic substrate Z-Valine-Valine-Arginine-AMC;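 note: Baculovirus-expressed CatS in pH 5.0 sodium acetate buffer with DTT and NaCl, fluorescence read each minute over 20 min, inhibition derived from rate slope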

Sequence of Recombinant human cathepsin S (CatS) (P25774 115-331): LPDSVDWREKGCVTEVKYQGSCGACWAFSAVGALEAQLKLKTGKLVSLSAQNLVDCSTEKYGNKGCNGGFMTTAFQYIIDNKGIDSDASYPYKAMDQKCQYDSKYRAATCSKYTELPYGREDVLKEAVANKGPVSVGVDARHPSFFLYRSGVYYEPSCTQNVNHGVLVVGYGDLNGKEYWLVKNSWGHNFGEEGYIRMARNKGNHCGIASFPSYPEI

Row | Compound | pIC50 | pIC50 (CatS IC50)
1 | CS(=O)(=O)N1CCc2c(c(-c3ccc(Cl)c(C#Cc4ccc(CN[C@@H](CO)c5ccccc5)cc4)c3)nn2CCCN2CCOCC2)C1 [Example 209, (2R)-2-({[4-({2-Chloro-5-[5-(methylsulfonyl)-1-(3-morpholin-4-ylpropyl)-4,5,6,7-tetrahydro-1H-pyrazolo[4,3-c]pyridin-3-yl]phenyl}ethynyl)phenyl]methyl}amino)-2-phenylethanol] |  | 7.00
2 | CS(=O)(=O)N1CCc2c(c(-c3ccc(Cl)c(C#Cc4ccc(CN[C@@H]5Cc6ccccc6[C@@H]5O)cc4)c3)nn2CCCN2CCN(c3ccccn3)CC2)C1 [Example 213, (1S,2R)-2-[({4-[(2-Chloro-5-{5-(methylsulfonyl)-1-[3-(4-pyridin-2-ylpiperazin-1-yl)propyl]-4,5,6,7-tetrahydro-1H-pyrazolo[4,3-c]pyridin-3-yl}phenyl)ethynyl]phenyl}methyl)amino]-2,3-dihydro-1H-inden-1-ol] |  | 7.70
3 | CS(=O)(=O)N1CCc2c(c(-c3ccc(Cl)c(C#Cc4ccc(CN[C@H]5CCCc6ccccc65)cc4)c3)nn2CCCN2CCN(c3ccccn3)CC2)C1 [Example 216, (1S)—N-({4-[(2-Chloro-5-{5-(methylsulfonyl)-1-[3-(4-pyridin-2-ylpiperazin-1-yl)propyl]-4,5,6,7-tetrahydro-1H-pyrazolo[4,3-c]pyridin-3-yl}phenyl)ethynyl]phenyl}methyl)-1,2,3,4-tetrahydronaphthalen-1-amine] |  | 7.15
4 | CC(NCc1ccc(C#Cc2cc(-c3nn(CCCN4CCN(c5ccccn5)CC4)c4c3CN(S(C)(=O)=O)CC4)ccc2Cl)cc1)c1ccccc1 (stereo not shown) [Example 219, N-({4-[(2-Chloro-5-{5-(methylsulfonyl)-1-[3-(4-pyridin-2-ylpiperazin-1-yl)propyl]-4,5,6,7-tetrahydro-1H-pyrazolo[4,3-c]pyridin-3-yl}phenyl)ethynyl]phenyl}methyl)-1-phenylethanamine] | 7.40 | 
5 | C[C@@H]1COCCN1CCCn1nc(-c2ccc(Cl)c(C#Cc3ccc(Cl)c(CNCCCO)c3)c2)c2c1CCN(C(N)=O)C2 [Example 222, 3-(4-Chloro-3-{4-chloro-3-[(3-hydroxy-propylamino)-methyl]-phenylethynyl}-phenyl)-1-[3-(3-methyl-morpholin-4-yl)-propyl]-1,4,6,7-tetrahydro-pyrazolo[4,3-c]pyridine-5-carboxylic acid amide] |  | 7.70
6 | CS(=O)(=O)N1CCc2c(c(-c3ccc(Cl)c(C#Cc4ccc5c(c4)CNCC5)c3)nn2CCCN2CCN(c3ccccc3)CC2)C1 [Example 225, 7-[(2-Chloro-5-{5-(methylsulfonyl)-1-[3-(4-phenylpiperazin-1-yl)propyl]-4,5,6,7-tetrahydro-1H-pyrazolo[4,3-c]pyridin-3-yl}phenyl)ethynyl]-1,2,3,4-tetrahydroisoquinoline] | 8.00 | 
7 | CN1CCc2ccc(C#Cc3cc(-c4nn(CCCN5CCN(c6ccccc6)CC5)c5c4CN(S(C)(=O)=O)CC5)ccc3Cl)cc2C1 [Example 226, 7-[(2-Chloro-5-{5-(methylsulfonyl)-1-[3-(4-phenylpiperazin-1-yl)propyl]-4,5,6,7-tetrahydro-1H-pyrazolo[4,3-c]pyridin-3-yl}phenyl)ethynyl]-2-methyl-1,2,3,4-tetrahydroisoquinoline] | 7.52 | 
8 | CC(=O)NC1CCN(CCCn2nc(-c3ccc(Cl)c(C#Cc4ccc5c(c4)CNCC5)c3)c3c2CCN(S(C)(=O)=O)C3)CC1 [Example 227, N-[1-(3-{3-[4-Chloro-3-(1,2,3,4-tetrahydroisoquinolin-7-ylethynyl)phenyl]-5-(methylsulfonyl)-4,5,6,7-tetrahydro-1H-pyrazolo[4,3-c]pyridin-1-yl}propyl)piperidin-4-yl]acetamide] |  | 7.40
9 | CS(=O)(=O)N1CCc2c(c(-c3ccc(Cl)c(CCc4ccc5c(c4)CNCC5)c3)nn2CCCN2CCN(C3CC3)CC2)C1 [Example 229, 7-[2-(2-Chloro-5-{1-[3-(4-cyclopropylpiperazin-1-yl)propyl]-5-(methylsulfonyl)-4,5,6,7-tetrahydro-1H-pyrazolo[4,3-c]pyridin-3-yl}phenyl)ethyl]-1,2,3,4-tetrahydroisoquinoline] |  | 7.05
10 | CC(C)(C)OC(=O)N1CCC(C2CCN(C[C@H](O)Cn3nc(-c4ccc(Cl)c(C#Cc5ccc(Cl)cc5)c4)c4c3CCN(S(C)(=O)=O)C4)CC2)CC1 [Example 230, 1,1-Dimethylethyl 1′-{(2S)-3-[3-{4-chloro-3-[(4-chlorophenyl)ethynyl]phenyl}-5-(methylsulfonyl)-4,5,6,7-tetrahydro-1H-pyrazolo[4,3-c]pyridin-1-yl]-2-hydroxypropyl}-4,4′-bipiperidine-1-carboxylate] | 8.00 | 
11 | CC(C)(C)OC(=O)N1CCC(C2CCN(C[C@H](O)Cn3nc(-c4ccc(Cl)c(C#CCc5ccccc5)c4)c4c3CCN(S(C)(=O)=O)C4)CC2)CC1 [Example 232, 1,1-Dimethylethyl 1′-[(2S)-3-{3-[4-chloro-3-(3-phenylprop-1-yn-1-yl)phenyl]-5-(methylsulfonyl)-4,5,6,7-tetrahydro-1H-pyrazolo[4,3-c]pyridin-1-yl}-2-hydroxypropyl]-4,4′-bipiperidine-1-carboxylate] |  | 5.82
12 | CC(C)(C)OC(=O)N1CCC(C2CCN(C[C@H](O)Cn3nc(-c4ccc(Cl)c(C#CC5CCCCC5)c4)c4c3CCN(S(C)(=O)=O)C4)CC2)CC1 [Example 233, 1,1-Dimethylethyl 1′-[(2S)-3-{3-[4-chloro-3-(cyclohexylethynyl)phenyl]-5-(methylsulfonyl)-4,5,6,7-tetrahydro-1H-pyrazolo[4,3-c]pyridin-1-yl}-2-hydroxypropyl]-4,4′-bipiperidine-1-carboxylate] | 5.10 | 
13 | CC(C)(C)OC(=O)N1CCC(C2CCN(C[C@H](O)Cn3nc(-c4ccc(Cl)c(C#Cc5ccccn5)c4)c4c3CCN(S(C)(=O)=O)C4)CC2)CC1 [Example 234, 1,1-Dimethylethyl 1′-[(2S)-3-{3-[4-chloro-3-(pyridin-2-ylethynyl)phenyl]-5-(methylsulfonyl)-4,5,6,7-tetrahydro-1H-pyrazolo[4,3-c]pyridin-1-yl}-2-hydroxypropyl]-4,4′-bipiperidine-1-carboxylate] |  | 6.55
14 | CC(C)(C)OC(=O)N1CCC(C2CCN(C[C@H](O)Cn3nc(-c4ccc(Cl)c(C#Cc5cccnc5)c4)c4c3CCN(S(C)(=O)=O)C4)CC2)CC1 [Example 235, 1,1-Dimethylethyl 1′-[(2S)-3-{3-[4-chloro-3-(pyridin-3-ylethynyl)phenyl]-5-(methylsulfonyl)-4,5,6,7-tetrahydro-1H-pyrazolo[4,3-c]pyridin-1-yl}-2-hydroxypropyl]-4,4′-bipiperidine-1-carboxylate] |  | 6.48
15 | CC(C)(C)OC(=O)N1CCC(C2CCN(C[C@H](O)Cn3nc(-c4ccc(Cl)c(C#Cc5ccc(Cl)cc5)c4)c4c3CCN(C(N)=O)C4)CC2)CC1 [Example 237, 1,1-Dimethylethyl 1′-{(2S)-3-[5-(aminocarbonyl)-3-{4-chloro-3-[(4-chlorophenyl)ethynyl]phenyl}-4,5,6,7-tetrahydro-1H-pyrazolo[4,3-c]pyridin-1-yl]-2-hydroxypropyl}-4,4′-bipiperidine-1-carboxylate] | 8.00 | 

Now from value to molecule, other results behind:

Row | pIC50 | Compound | pIC50 (CatS IC50)
16 | 5.50 | COC(=O)C1NCCc2cc(C#Cc3cc(-c4nn(CCCN5CCOCC5)c5c4CN(S(C)(=O)=O)CC5)ccc3Cl)ccc21 (stereo not shown) [Example 208, Methyl 6-({2-chloro-5-[5-(methylsulfonyl)-1-(3-morpholin-4-ylpropyl)-4,5,6,7-tetrahydro-1H-pyrazolo[4,3-c]pyridin-3-yl]phenyl}ethynyl)-1,2,3,4-tetrahydroisoquinoline-1-carboxylate] | 
17 | 6.96 | COC(=O)[C@H](NCc1ccc(C#Cc2cc(-c3nn(CCCN4CCOCC4)c4c3CN(S(C)(=O)=O)CC4)ccc2Cl)cc1)c1ccccc1 [Example 211, Methyl (2R)-({[4-({2-chloro-5-[5-(methylsulfonyl)-1-(3-morpholin-4-ylpropyl)-4,5,6,7-tetrahydro-1H-pyrazolo[4,3-c]pyridin-3-yl]phenyl}ethynyl)phenyl]methyl}amino)(phenyl)ethanoate] | 
18 | 7.10 | CS(=O)(=O)N1CCc2c(c(-c3ccc(Cl)c(C#Cc4ccc(CNCc5ccc(Cl)c(Cl)c5)cc4)c3)nn2CCCN2CCOCC2)C1 [Example 212, 1-[4-({2-Chloro-5-[5-(methylsulfonyl)-1-(3-morpholin-4-ylpropyl)-4,5,6,7-tetrahydro-1H-pyrazolo[4,3-c]pyridin-3-yl]phenyl}ethynyl)phenyl]-N-[(3,4-dichlorophenyl)methyl]methanamine] | 
19 | 7.52 | CS(=O)(=O)N1CCc2c(c(-c3ccc(Cl)c(C#Cc4ccc(CN[C@H](CO)c5ccccc5)cc4)c3)nn2CCCN2CCN(c3ccccn3)CC2)C1 [Example 218, (2S)-2-[({4-[(2-Chloro-5-{5-(methylsulfonyl)-1-[3-(4-pyridin-2-ylpiperazin-1-yl)propyl]-4,5,6,7-tetrahydro-1H-pyrazolo[4,3-c]pyridin-3-yl}phenyl)ethynyl]phenyl}methyl)amino]-2-phenylethanol] | 
20 | 7.05 | CS(=O)(=O)N1CCc2c(c(-c3ccc(Cl)c(CCc4ccc5c(c4)CNCC5)c3)nn2CCCN2CCCCC2)C1 [Example 228, 7-(2-{2-Chloro-5-[5-(methylsulfonyl)-1-(3-piperidin-1-ylpropyl)-4,5,6,7-tetrahydro-1H-pyrazolo[4,3-c]pyridin-3-yl]phenyl}ethyl)-1,2,3,4-tetrahydroisoquinoline] | 
21 | 5.57 | CC(C)CC#Cc1cc(-c2nn(C[C@@H](O)CN3CCC(C4CCN(C(=O)OC(C)(C)C)CC4)CC3)c3c2CN(S(C)(=O)=O)CC3)ccc1Cl [Example 231, 1,1-Dimethylethyl 1′-[(2S)-3-{3-[4-chloro-3-(4-methylpent-1-yn-1-yl)phenyl]-5-(methylsulfonyl)-4,5,6,7-tetrahydro-1H-pyrazolo[4,3-c]pyridin-1-yl}-2-hydroxypropyl]-4,4′-bipiperidine-1-carboxylate] | 
22 | 5.15 | CCN(CC)CC#Cc1cc(-c2nn(C[C@@H](O)CN3CCC(C4CCN(C(=O)OC(C)(C)C)CC4)CC3)c3c2CN(S(C)(=O)=O)CC3)ccc1Cl [Example 236, 1,1-Dimethylethyl 1′-{(2S)-3-[3-{4-chloro-3-[3-(diethylamino)prop-1-yn-1-yl]phenyl}-5-(methylsulfonyl)-4,5,6,7-tetrahydro-1H-pyrazolo[4,3-c]pyridin-1-yl]-2-hydroxypropyl}-4,4′-bipiperidine-1-carboxylate] | 
